Results: patent US7279290B2, “ATM kinase compositions and methods” (St. Jude Children's Research Hospital, priority 2002, dated 2007)

Columns and labels:
Ser^1981 in ATM = experiment: Ser^1981 phosphorylation of ATM in primary fibroblasts after treatment with agents; type: cell-based, human; details: for Phosphorylation of ATM: over one and five hours after exposure
Method: Another aspect of the present invention provides a method of detecting DNA damage in a cell by identifying the activation state of ATM kinase.
293T cells, HeLa cells and 1070SK primary human foreskin fibroblasts (HFF) (>passage 20, ATCC) were cultured in Dulbecco's Modification of Eagle's Medium (DMEM) supplemented with 10% fetal bovine serum (FBS). GM00637 and GM09607 fibroblasts were grown in DMEM containing 15% FBS. GM00536 lymphoblast cells were grown in RPMI supplemented with 10% fetal calf serum. 293T cells were transfected using FUGENE™ (Roche, Indianapolis, Ind.) and HeLa cells, GM00637 and GM09607 with LIPOFECTAMINE™ (INVITROGEN™ Corp., Carlsbad, Calif.). Metabolic labeling was performed by pre-equilibrating cells in phosphate-free media for three hours prior to the addition of 0.5 mCi/ml ^32P orthophosphate (PerkinElmer Life Sciences Inc., Boston, Mass.) for 30 minutes. Inhibition of DNA synthesis and analysis of G2/M checkpoint after irradiation was assessed using well-known methods (e.g., Xu, et al. (2001) Mol. Cell. Biol. 21:3445-3450). Wortmannin was added to samples on ice 15 minutes prior to reactions and 5 μM manganese and 1 μg sonicated calf thymus DNA were present or absent. Proteins were crosslinked by incubating cells in formaldehyde/phosphate-buffered saline (PBS) for 10 minutes at room temperature. Formaldehyde was washed out using PBS containing 100 mM glycine and immunoprecipitation was then performed. Hypotonic swelling was performed for 1 hour in PBS containing 0.45% glucose (w/v) and 1% FBS with the NaCl concentration reduced to either 50 mM or 100 mM. HFF were incubated with chloroquine in DMEM containing 10% FBS for four hours. Prior to an eight hour incubation with Trichostatin A, HFF was grown for 24 hours in DMEM containing 0.1% FBS. […] For immunofluoresence experiments, HFF grown on glass slides were fixed in 50% methanol/50% acetone for two hours at −20° C. Cells were incubated with primary antibodies at 1/1000 (H2AXγ; Upstate, Charlottesville, Va.) and secondary antibodies at 1/500 (Cy3 anti-mouse and FITC anti-rabbit; Jackson ImmunoResearch Laboratories, Inc., West Grove, Pa.) in PBS, 10% FBS for one hour.
Mammalian cell extracts were prepared in buffer A. Cleared supernatants were immunoprecipitated with anti-FLAG® M2 sepharose or anti-ATM D1611 (Alligood, et al. (2000) Hybridoma 19:317-321) and protein A/G agarose. Beads were washed twice with buffer A and twice with RIPA buffer. Co-immunoprecipitation was performed in buffer B: 50 mM Tris (pH 7.5), 150 mM NaCl, 0.5% TWEEN® 20, 0.2% NP-40, 50 mM NaF, 1 mM AEBSF, and 1x protease inhibitor mixture (Roche, Indianapolis, Ind.).
Western blotting was performed with anti-FLAG® M5 (Sigma-Aldrich, St. Louis, Mo.), anti-ATM MAT3, anti-GST (Amersham Pharmacia Biotech, Uppsala, Sweden) or anti-6x-His (Sigma-Aldrich, St. Louis, Mo.).

HeLa cells = experiment: Radioprotection assay (colony formation after irradiation); type: cell-based; details: for Average Number of Colonies*: 2 μg/ml chloroquine one hour, washed one hour, 1000 cells plated
Method: HeLa cells were treated with 2 μg/ml of chloroquine for one hour, washed for one hour, and irradiated at 2 or 6 Gy. Subsequently, 1000 cells were plated and assessed for colony formation.

HFF = experiment: Cell death of HFF during incubation; details: HFF incubated with chloroquine four hours
Method: 293T cells, HeLa cells and 1070SK primary human foreskin fibroblasts (HFF) (>passage 20, ATCC) were cultured in Dulbecco's Modification of Eagle's Medium (DMEM) supplemented with 10% fetal bovine serum (FBS). GM00637 and GM09607 fibroblasts were grown in DMEM containing 15% FBS. GM00536 lymphoblast cells were grown in RPMI supplemented with 10% fetal calf serum. 293T cells were transfected using FUGENE™ (Roche, Indianapolis, Ind.) and HeLa cells, GM00637 and GM09607 with LIPOFECTAMINE™ (INVITROGEN™ Corp., Carlsbad, Calif.). Metabolic labeling was performed by pre-equilibrating cells in phosphate-free media for three hours prior to the addition of 0.5 mCi/ml ^32P orthophosphate (PerkinElmer Life Sciences Inc., Boston, Mass.) for 30 minutes. Inhibition of DNA synthesis and analysis of G2/M checkpoint after irradiation was assessed using well-known methods (e.g., Xu, et al. (2001) Mol. Cell. Biol. 21:3445-3450). Wortmannin was added to samples on ice 15 minutes prior to reactions and 5 μM manganese and 1 μg sonicated calf thymus DNA were present or absent. Proteins were crosslinked by incubating cells in formaldehyde/phosphate-buffered saline (PBS) for 10 minutes at room temperature. Formaldehyde was washed out using PBS containing 100 mM glycine and immunoprecipitation was then performed. […]

ATM protein = experiment: ATM phosphorylation after chromatin-modifying treatments (immunoblot and immunofluorescence); type: cell-based, human
Source text: Since such a high fraction of cellular ATM becomes phosphorylated so rapidly in the presence of so few DNA strand breaks, it is unlikely that the ATM oligomers could require direct binding to DNA strand breaks for activation and autophosphorylation. Therefore, the introduction of DNA strand breaks may cause a change in the nucleus that activates ATM at a distance from the break itself. As DNA strand breaks introduced by ionizing irradiation rapidly alter topological constraints on DNA (Roti Roti and Wright (1987) Cytometry 8:461-467; Jaberaboansari, et al. (1988) Radiat. Res. 114:94-104; Malyapa, et al. (1996) Int. J. Radiat. Oncol. Biol. Phys. 35:963-973),alterations in some aspect of chromatin structure fit the criteria of being a rapid change and being able to act a distance in the nucleus. Chromatin and chromosome structures can be altered in the absence of DNA breaks by hypotonic conditions (Earnshaw, and Laemmli (1983) J. Cell Biol. 96:84-93; Jeppesen, et al. (1992) Chromosoma 101:322-332), exposure to chloroquine (Krajewski (1995) FEBS Letters 361:149-152; Jensen, et al. (1994) Cancer Res. 54:2959-2963; Snyder (2000) Environ. Mol. Mutagen. 35:13-21), or treatment with histone deaceylase inhibitors (Krajewski (1999) J. Biomol. Struct. Dynam. 16:1097-1106; Yoshida, et al. (1995) BioEssays 17:423-430; Kuo and Allis (1998) BioEssays 20:615-626). […]

Ser^1981 of ATM = experiment: Ser^1981 phosphorylation following irradiation of human diploid fibroblasts; type: cell-based
Method: Autophosphorylation of Ser^1981 was determined using glutathione-S-transferase (GST) fusion proteins containing various lengths of ATM as substrates of the ATM kinase in in vitro kinase reactions. A polypeptide containing the appropriate serine residue at 1981 was an excellent in vitro substrate, whereas a Ser^1981→Ala mutant was not phosphorylated by ATM whether the read-out was incorporation of radioactive phosphate or binding by the α-Ser^1981-P antibody. […] This concentration of wortmannin inhibits both ATM and DNA-dependent protein kinase (DNA-PK), but not ataxia- and Rad3-related protein (ATR), in vivo (Sarkaria, et al. (1998) Cancer Res. 58:4375-4382). To exclude DNA-PK as a responsible kinase, phosphorylation of Ser^1981 was determined in a cell line lacking DNA-PK activity. The kinetics and levels of IR-induced phosphorylation of Ser^1981 were identical to those in a similar cell line containing DNA-PK activity.

[1] = one hour following exposure, 2 nM camptothecin, 17 nM etoposide or 0.1% H2O2

CC[C@@]1(O)C(=O)OCc2c1cc1n(c2=O)Cc2cc3ccccc3nc2-1 [camptothecin]
Phosphorylation of Ser^1981 in ATM (Ser^1981 in ATM; [1]): detected

NC(=O)NO [hydroxyurea]
Phosphorylation of ATM (Ser^1981 in ATM): Little or no phosphorylation

OO [H2O2]
Phosphorylation of Ser^1981 in ATM (Ser^1981 in ATM; [1]): detected

CCN(CC)CCCC(C)Nc1ccnc2cc(Cl)ccc12 (stereo not shown) [chloroquine]
Average Number of Colonies* (HeLa cells; irradiated at 2 Gy): 580 | Average Number of Colonies* (HeLa cells; irradiated at 6 Gy): 129 | increase in cell survival by treatment prior to irradiation (HeLa cells; HeLa cells, chloroquine prior to irradiation): 30% | cell death (HFF): No cell death was observed | phosphorylation of ATM protein (ATM protein): induced rapid and diffuse phosphorylation

COC[C@H]1OC(=O)c2coc3c2[C@@]1(C)C1=C(C3=O)[C@@H]2CCC(=O)[C@@]2(C)C[C@H]1OC(C)=O [wortmannin]
concentration effectively inhibiting phosphorylation of Ser^1981 (Ser^1981 of ATM): ≥ 20 µM

Cc1cn([C@H]2C[C@H](O)[C@@H](CO)O2)c(=O)[nH]c1=O [thymidine]
Phosphorylation of ATM (Ser^1981 in ATM): Little or no phosphorylation

C[C@@]1(CO)[C@H](O)CC[C@@]2(C)[C@H]1CC[C@H]1C[C@@H]3C[C@@]12CC[C@]3(O)CO [aphidicolin]
Phosphorylation of ATM (Ser^1981 in ATM): Little or no phosphorylation

CC(/C=C/C(=O)NO)=C\[C@@H](C)C(=O)c1ccc(N(C)C)cc1 [Trichostatin, Trichostatin A]
phosphorylation of ATM protein (ATM protein): induced rapid and diffuse phosphorylation

COS(C)(=O)=O [MMS, methlymethanesulfonate]
Phosphorylation of Ser^1981 in ATM (Ser^1981 in ATM; five hours after treatment, compared with one hour): more prominent phosphorylation
